assay: Dissolution capacity of UV light protection filters; type: physicochemical; conditions: Bis-Ethylhexyloxyphenol Methoxyphenyl Triazine in the compound as solvent, 22° C., percentage by weight
From the text: To test the dissolution capacity of UV light protection filters, three representative UVA or UVB light protection filters were selected representatively. These are: • Butyl Methoxydibenzoylmethane (BMDM) • Ethylhexyl Triazone (EHT) • Bis-Ethylhexyloxyphenol Methoxyphenyl Triazine (BEMT).
To determine the dissolution capacity for these three UV light protection filters, a certain amount (50 g) of one of the compounds according to the invention was initially charged in each case and temperature-controlled at 22° C. A percentage by weight of a UV light protection filter was added and stirred until this amount had fully and homogeneously dissolved. This procedure was repeated until the maximal soluble amount of the UV light protection filter had been exceeded. […] If the maximum concentration had been roughly determined in this manner, a fine determination of the concentration range was repeated around this maximum concentration using smaller weighed amounts of the UV light protection filter.

Going from CCCCCCCC(=O)OCCOc1ccccc1 [2-Phenoxyethyl octanoate, reference compound] to CCCCOC(=O)c1ccc(C(=O)OCCCC)cc1 [Di(n-)butane terephthalate], the “dissolution capacity for BEMT (maximal soluble amount)” value rises from 11% to 23%.

With CC(C)CCOC(=O)c1ccc(C(=O)OCCC(C)C)cc1 [Di(iso)pentyl terephthalate] the “dissolution capacity for BEMT (maximal soluble amount)” value was 13%.

same assay, conditions: Butyl Methoxydibenzoylmethane in the compound as solvent, 22° C., percentage by weight

Compared with CCCCCCCC(=O)OCCOc1ccccc1 [2-Phenoxyethyl octanoate, reference compound], CCCCOC(=O)c1ccc(C(=O)OCCCC)cc1 [Di(n-)butane terephthalate] is higher in “dissolution capacity for BMDM (maximal soluble amount)” value: 18% for the first, 23% for the second.

For CC(C)CCOC(=O)c1ccc(C(=O)OCCC(C)C)cc1 [Di(iso)pentyl terephthalate], the “dissolution capacity for BMDM (maximal soluble amount)” value was 22%.

same assay, conditions: Ethylhexyl Triazone in the compound as solvent, 22° C., percentage by weight

Compared with CCCCCCCC(=O)OCCOc1ccccc1 [2-Phenoxyethyl octanoate, reference compound], CCCCOC(=O)c1ccc(C(=O)OCCCC)cc1 [Di(n-)butane terephthalate] is higher in “dissolution capacity for EHT (maximal soluble amount)” value: 6% for the first, 18% for the second.

With CC(C)CCOC(=O)c1ccc(C(=O)OCCC(C)C)cc1 [Di(iso)pentyl terephthalate] the “dissolution capacity for EHT (maximal soluble amount)” value was 14%.

Reference: patent publication US20220323325A1, “COMPOSITIONS COMPRISING DISSUBSTITUTE TEREPHTHALATES AND ALSO LIGHT PROECTION FILTER SUBSTANCES, DEODORANT AND/OR ANTIPERSPIRANT ACTIVE INGREDIENTS” (Evonik Operations GmbH, priority 2019, published 2022)
